In this assay the target is Replicase polyprotein 1ab (Severe acute respiratory syndrome coronavirus, UniProt P0C6X7). Kind of assay: SARS-CoV 3CL Protease Inhibition Assay. The conditions noted are these: pH 7; 25 °C. On the procedure: The effects of compound on enzyme activity were measured by using a fluorogenic peptide cleavage assay. Enhanced fluorescence caused by cleavage of the substrate peptide was monitored at 538 nm with excitation at 355 nm. The Ki measurements were performed at two fixed inhibitor concentrations and various substrate concentrations.

`CCOC(=O)/C=C/[C@H](C[C@@H]1CCNC1=O)NC(=O)[C@@H](CC(=O)[C@@H](NC(=O)c1cc(C)on1)C(C)C)Cc1ccc(F)cc1` [ethyl (2E,4S)-4-[((2R,5S)-2-(4-fluorobenzyl)-6-methyl-5-{[(5-methylisoxazol-3-yl)carbonyl]amino}-4-oxoheptanoyl)amino]-5-[(3S)-2-oxopyrrolidin-3-yl]pent-2-enoate] had an IC50 above 100 µM.

A word on the IC50: it is the concentration at which inhibition is half-maximal. Higher therefore signals weaker potency in that assay.

These data come from BindingDB's records for doi:10.1016/j.bmc.2005.05.065 (National Taiwan University, 2005).
